Assay results reported in patent publication US12427215B2, “Endoscope disinfectant” (Whiteley Corporation Pty Ltd, priority 2019, dated 2025).

Assay: Solubility of surfactants in the base formulation of Example 12
Type: physicochemical
Details: base solution of water, dipotassium hydrogen phosphate, potassium hydroxide, benzotriazole; without hydrotrope
Description: A base solution comprising 907.77 g deionised water, 46.22 g of anhydrous dipotassium hydrogen phosphate, 30.98 g of 48% w/w potassium hydroxide solution and 10.36 g benzotriazole was prepared. In the case of Surfadone LP100 and Makon NF12, these surfactants were insoluble in the base formulation, and so were solublised using the hydrotrope, Triton H66 (see formulations 12-D and 12-F).

CCCCCCCCN1CCCC1=O [Surfadone LP100, N-octyl-2-pyrrolidone]
solubility in the base formulation: insoluble
